Laboratory results from patent US5250542A, “Peripherally selective piperidine carboxylate opioid antagonists” (Eli Lilly and Company, priority 1992, dated 1993).
Structures can show the parent of a compound that is named as a salt. Where two headings read alike, the source gives them in different places.

Experiments:
[1] = target: T1, mu receptor (Rattus norvegicus, UniProt P33535); test: opioid receptor binding assay, [3H] NAL (tritiated naloxone), mu receptor; design: species or system rat (Male Sprague Dawley), brain minus cerebellum; conditions: for inhibition at 0.01 µM / inhibition at 0.1 µM: 20 min, [3H] naloxone 0.5 nM
T1 construct: rat whole brain minus cerebellum for mu was homogenized; from tissue; host or cells: brain of male Sprague Dawley rats, whole brain minus cerebellum, homogenate fraction
T1 sequence (P33535 whole entry): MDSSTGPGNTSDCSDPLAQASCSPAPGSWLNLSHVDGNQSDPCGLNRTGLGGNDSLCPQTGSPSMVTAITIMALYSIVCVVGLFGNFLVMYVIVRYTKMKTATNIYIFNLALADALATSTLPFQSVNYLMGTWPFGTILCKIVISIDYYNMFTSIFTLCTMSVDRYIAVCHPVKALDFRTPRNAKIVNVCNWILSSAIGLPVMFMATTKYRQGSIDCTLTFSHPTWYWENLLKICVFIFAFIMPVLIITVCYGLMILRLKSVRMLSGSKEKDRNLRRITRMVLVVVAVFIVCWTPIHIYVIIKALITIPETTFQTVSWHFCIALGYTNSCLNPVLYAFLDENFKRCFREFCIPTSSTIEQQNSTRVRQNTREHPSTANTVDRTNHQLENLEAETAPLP
Procedure, shortened: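 Displacement of [3H]naloxone was measured on rat whole brain minus cerebellum membranes, preincubated 20 min and incubated 20 min at 37° C, with filtration separating bound ligand. Ki was derived from IC50 and ligand KD. Percent displacement was also recorded at 10 nM and 100 nM test compound.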

[2] = target: T2, peripheral opioid receptors (Mus musculus, UniProt P42866); test: precipitated diarrhea in morphine-maintained mice (peripheral opioid activity) and comparison with the writhing test; assay type: in vivo; conditions: for Ratio (AD50 mouse writhing test / ED50 mouse diarrhea test): higher ratio = greater relative antagonism of peripheral opioid receptors; for ED50: mouse, 0.5 h, morphine-maintained mice, antagonist subcutaneous or oral, 30 min observation
T2 construct: Mice maintained (6 mice/cage) on 0.01M saccharin water with 1 g/1 morphine sulfate; from tissue; host or cells: living morphine-maintained mice (in vivo test; endogenous receptor)
T2 sequence (P42866 whole entry): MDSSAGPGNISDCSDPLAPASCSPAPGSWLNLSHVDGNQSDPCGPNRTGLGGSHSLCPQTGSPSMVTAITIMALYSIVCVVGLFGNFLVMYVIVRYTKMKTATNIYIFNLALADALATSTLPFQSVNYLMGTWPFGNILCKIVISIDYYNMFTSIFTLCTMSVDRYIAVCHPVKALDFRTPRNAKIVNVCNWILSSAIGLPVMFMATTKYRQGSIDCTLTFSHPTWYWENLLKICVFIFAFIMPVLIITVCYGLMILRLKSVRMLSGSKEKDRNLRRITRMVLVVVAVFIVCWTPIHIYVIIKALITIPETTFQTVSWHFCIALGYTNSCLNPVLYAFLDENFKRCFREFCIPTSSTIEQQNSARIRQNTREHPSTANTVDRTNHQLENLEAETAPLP
Procedure, shortened: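 Morphine-dependent mice (1 g/l morphine sulfate in drinking water ≥10 days, withdrawn 45 min before dosing) received antagonist subcutaneously or orally, 5 mice/dose. Diarrhea (and jumping) were scored over 30 min and doses lowered to find the diarrhea threshold. Peripheral selectivity was taken as writhing AD50 divided by diarrhea ED50.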

[3] = target: T3, opioid receptor (Mus musculus, UniProt P42866); test: mouse writhing analgesis test: block of morphine-induced analgesia; assay type: in vivo, CF-1 male mice; design: unit not given here; conditions: dose of antagonist that reduced the inhibition of writhing produced by 1.25 mg/kg morphine sulfate to 50%; subcutaneous, 20 min before acetic acid
T3 construct: Five CF-1 male mice (Charles River, Portage, Mich.); from tissue; host or cells: living CF-1 male mice (in vivo test; endogenous receptor)
T3 sequence (P42866 whole entry): as above
Procedure, shortened: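 Male CF-1 mice (~20 g, fasted overnight, n=5) dosed subcutaneously 20 min before i.p. 0.6% acetic acid; writhes counted for 10 min starting 5 min post-injection. Antagonism measured as blockade of morphine-induced inhibition of writhing, percent versus vehicle controls; ED50 defined as 50% writhing inhibition.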

Compound	Ki [1] [nM]	inhibition at 0.01 µM ([1]; read-out: % displacement at 10 nM, 10 nM test compound) [%]	inhibition at 0.1 µM ([1]; read-out: % displacement at 100 nM, 100 nM test compound) [%]	Ratio (AD50 mouse writhing test / ED50 mouse diarrhea test) [2]	ED50 [2] [mg/kg]	AD50 [3]	inhibition at 0.01 µM ([1]; 10 nM test compound, read-out: % displacement at 10 nM) [%]	inhibition at 0.1 µM ([1]; 100 nM test compound, read-out: % displacement at 100 nM) [%]
CCNC(=O)CCCNC(=O)C(Cc1ccccc1)CN1CC[C@@](C)(c2cccc(O)c2)[C@@H](C)C1 (some centres unmarked) [Example 64, N-(ethyl)-4-[[3-4-(3-hydroxyphenyl)-3,4-dimethyl-1-piperidinyl]-2-(phenylmethyl)-1-oxopropyl]amino]butanamide monohydrochloride]	1.23	94	100	> 45	0.9	> 40		
CCOC(=O)CN(C)C(=O)C(Cc1ccccc1)CN1CC[C@@](C)(c2cccc(O)c2)[C@@H](C)C1 (some centres unmarked) [Example 65, [[2-[[4-(3-hydroxyphenyl)-3,4-dimethyl-1-piperidinyl]methyl]-1-oxo-3-phenylpropyl]-methylamino]acetic acid ethyl ester monohydrochloride]				3	0.92	2.8	57	95
